Source: article PMC4501720 (PLoS ONE, 2015)

System: whole blood cells of group 3 pigs vaccinated with BCG-pAg85A
Type: cell-based, pigs (Sus scrofa domestica)

| Substance | animals with positive proliferative response to peptide |
| --- | --- |
| 131–150: synthetic overlapping peptide of mature Ag85A, aa 131–150 (SALTLAIYHPQQFVYAGAMS; UniProt P9WQP3 174-193, looked up, fragment) | 5/6 |

System: whole blood cells of group 3 pigs vaccinated with BCG-pAg85A
Type: cell-based, pigs (Sus scrofa domestica)
Remark: another data set of the same source

| Substance | IFN-γ levels, BCG / pAg85A animal number 1 | IFN-γ levels, BCG / pAg85A animal number 2 | IFN-γ levels, BCG / pAg85A animal number 3 | IFN-γ levels, BCG / pAg85A animal number 4 | IFN-γ levels, BCG / pAg85A animal number 5 | IFN-γ levels, BCG / pAg85A animal number 6 | group 3 animals recognizing the peptide (significant IFN-γ levels) |
| --- | --- | --- | --- | --- | --- | --- | --- |
| 131–150: synthetic overlapping peptide of mature Ag85A, aa 131–150 (SALTLAIYHPQQFVYAGAMS; UniProt P9WQP3 174-193, looked up, fragment) | 11,114 pg/mL | 1,754 pg/mL | 5,306 pg/mL | 868 pg/mL | 11,072 pg/mL | 4,687 pg/mL | 6/6 and all six |
| 231–250: synthetic overlapping peptide of mature Ag85A, aa 231–250 (GFVRTSNIKFQDAYNAGGGH; UniProt P9WQP3 274-293, looked up, fragment) | 11,639 pg/mL | 13,693 pg/mL | 423 pg/mL | <5 pg/mL | 1,018 pg/mL | 665 pg/mL | – |
| 241–260: synthetic overlapping peptide of mature Ag85A, aa 241–260 (QDAYNAGGGHNGVFDFPDSG; UniProt P9WQP3 284-303, looked up, fragment) | 40 pg/mL | <5 pg/mL | <5 pg/mL | <5 pg/mL | <5 pg/mL | 66 pg/mL | – |
| 251–270: synthetic overlapping peptide of mature Ag85A, aa 251–270 (NGVFDFPDSGTHSWEYWGAQ; UniProt P9WQP3 294-313, looked up, fragment) | 410 pg/mL | 317 pg/mL | <5 pg/mL | 11 pg/mL | 161 pg/mL | 163 pg/mL | – |
| 261–280: synthetic overlapping peptide of mature Ag85A, aa 261–280 (THSWEYWGAQLNAMKPDLQR; UniProt P9WQP3 304-323, looked up, fragment) | 31 pg/mL | <5 pg/mL | <5 pg/mL | 157 pg/mL | 728 pg/mL | 1,240 pg/mL | – |
| 275–294: synthetic overlapping peptide of mature Ag85A, aa 275–294 (KPDLQRALGATPNTGPAPQG; UniProt P9WQP3 318-337, looked up, fragment) | 57 pg/mL | <5 pg/mL | <5 pg/mL | <5 pg/mL | 114 pg/mL | 77 pg/mL | – |
| Ag85A tub: recombinant E. coli derived histidine-tagged Ag85A of M. tuberculosis | 145,331 pg/mL | 50,084 pg/mL | 68,850 pg/mL | 3,712 pg/mL | 27,544 pg/mL | 14,506 pg/mL | – |
